The supplement of paper PMC13380429

Tests used:
[1] = tested on: A549-ACE2 infected with SARS-CoV-2; assay: cell count relative to DMSO; higher = less toxic; details: 24 h
[2] = tested on: A549-ACE2 infected with SARS-CoV-2; assay: SARS-CoV-2 infection rate relative to DMSO; higher = more infection; details: 24 h
A549-ACE2 = assay: drug-induced phospholipidosis relative to tamoxifen; higher = more phospholipidosis
HepG2 [3] = assay: drug sensitivity score (DSS) for viability; higher = more toxic; extreme values may be limits of the assay; details: 72 h
U2OS [4] = assay: as above; details: 72 h
Vero E6 [5] = assay: as above; details: 72 h
Caco-2 [6] = assay: as above; details: 72 h
Calu-3 [7] = assay: as above; details: 72 h
[8] = tested on: A549-ACE2 infected with SARS-CoV-2; assay: morphology score (similarity to uninfected cells); higher = more like uninfected cells; details: 24 h
HepG2 [9] = assay: cell viability relative to DMSO; higher = less toxic; details: 72 h
U2OS [10] = assay: as above; details: 72 h
Vero E6 [11] = assay: as above; details: 72 h
Caco-2 [12] = assay: as above; details: 72 h
Calu-3 [13] = assay: as above; details: 72 h
HepG2 [14] = assay: relative viability EC50 (midpoint between 100% and the lowest measured viability); higher = less toxic; details: 72 h
U2OS [15] = assay: as above; details: 72 h
Vero E6 [16] = assay: as above; details: 72 h
Caco-2 [17] = assay: as above; details: 72 h
Calu-3 [18] = assay: as above; details: 72 h

c1cnc2c([O][Ga]([O]c3cccc4cccnc34)[O]c3cccc4cccnc34)cccc2c1 [gallium-triquinolin-8-olate]
Details	SARS-CoV-2 infection rate, [2] [%]	cell count, [1] [%]	cell viability, Caco-2 [12] [%]	cell viability, Calu-3 [13] [%]	cell viability, HepG2 [9] [%]	cell viability, U2OS [10] [%]	cell viability, Vero E6 [11] [%]	morphology score, [8]
1 nM	–	–	94.3	95.9	96.5	97	116	–
10 nM	–	–	104	111	102	105	103	–
100 nM	–	–	89.1	97.6	118	100	106	–
0.3 µM	98	103	–	–	–	–	–	0.25
1000 nM	–	–	116	110	97.1	102	102	–
3 µM	50	73	–	–	–	–	–	0.64
10 µM	23	69	–	–	–	–	–	0.75
10000 nM	–	–	6.6	51.7	2.2	19.7	87.7	–
30 µM	23	35	–	–	–	–	–	0.35

drug-induced phospholipidosis [%], A549-ACE2
Details	0.3 µM	0.833333 µM	3.33333 µM
24 h	3.04	1.03	-5.09
48 h	1.4	-0.94	–
72 h	3.03	0.0941	–

Details	drug sensitivity score	relative viability EC50 [µM]
Caco-2 [6]	4.3	–
Caco-2 [17]	–	3.85
Calu-3 [7]	2	–
HepG2 [3]	5.8	–
HepG2 [14]	–	2.96
U2OS [4]	4.2	–
U2OS [15]	–	3.34
Vero E6 [5]	0	–
Vero E6 [16]	–	> 10

COC(=O)C[C@](O)(CCC(C)(C)O)C(=O)O[C@@H]1C(OC)=C[C@]23CCCN2CCc2cc4c(cc2[C@H]13)OCO4 [harringtonine]
Details	SARS-CoV-2 infection rate, [2] [%]	cell count, [1] [%]	cell viability, Caco-2 [12] [%]	cell viability, Calu-3 [13] [%]	cell viability, HepG2 [9] [%]	cell viability, U2OS [10] [%]	cell viability, Vero E6 [11] [%]	morphology score, [8]
1 nM	–	–	108	93.2	103	95.9	105	–
10 nM	–	–	94.6	98.7	108	99.2	100	–
100 nM	–	–	73.5	81	45.7	46.8	109	–
0.3 µM	5	92	–	–	–	–	–	0.57
1000 nM	–	–	56.3	34.9	11.1	11	34.2	–
3 µM	21	62	–	–	–	–	–	0.26
10 µM	12	50	–	–	–	–	–	0.27
10000 nM	–	–	53.6	24.9	0.3	0.9	9.1	–
30 µM	33	37	–	–	–	–	–	0.29

A549-ACE2, 24 h
Details	drug-induced phospholipidosis [%]
0.3 µM	0.19
0.833333 µM	-6.78

Details	drug sensitivity score	relative viability EC50 [µM]
Caco-2 [6]	11.3	–
Calu-3 [7]	14.3	–
Calu-3 [18]	–	0.233
HepG2 [3]	24.5	–
HepG2 [14]	–	0.0934
U2OS [4]	23.5	–
U2OS [15]	–	0.0946
Vero E6 [5]	12.6	–
Vero E6 [16]	–	0.686

CCCc1nn(C)c2c(=O)[nH]c(-c3cc(S(=O)(=O)N4CCN(C)CC4)ccc3OCC)nc12 [sildenafil]
Details	drug sensitivity score	relative viability EC50 [µM]
Caco-2 [6]	0	–
Caco-2 [17]	–	> 10
Calu-3 [7]	0	–
Calu-3 [18]	–	> 10
HepG2 [3]	0.3	–
HepG2 [14]	–	> 10
U2OS [4]	0	–
U2OS [15]	–	> 10
Vero E6 [5]	0	–
Vero E6 [16]	–	> 10

cell viability [%]
Details	Caco-2 [12]	Calu-3 [13]	HepG2 [9]	U2OS [10]	Vero E6 [11]
1 nM	93.7	106	96.7	99.3	98.3
10 nM	86.3	94.6	104	98.3	111
100 nM	93.8	105	99.4	101	95.1
1000 nM	84.6	91.8	102	99.9	101
10000 nM	93.9	129	81.8	103	96.1

CN1CCN(c2ncc(-c3cc(Cl)cc(Cl)c3Cl)c(N)n2)CC1 [sipatrigine]
Details	drug sensitivity score	relative viability EC50 [µM]
Caco-2 [6]	0	–
Caco-2 [17]	–	> 10
Calu-3 [7]	0	–
Calu-3 [18]	–	> 10
HepG2 [3]	0.2	–
HepG2 [14]	–	> 10
U2OS [4]	0	–
U2OS [15]	–	> 10
Vero E6 [5]	0	–
Vero E6 [16]	–	> 10

cell viability [%]
Details	Caco-2 [12]	Calu-3 [13]	HepG2 [9]	U2OS [10]	Vero E6 [11]
1 nM	85.5	92.1	100	104	110
10 nM	91.1	105	103	102	107
100 nM	92.3	108	110	104	100
1000 nM	91.8	111	98.4	103	101
10000 nM	85.3	92.3	86.4	92.9	94.5

OC[C@@H](O)[C@@H](O)[C@H](O)[C@@H](O)CO [sorbitol]
Details	drug sensitivity score	relative viability EC50 [µM]
Caco-2 [6]	0	–
Caco-2 [17]	–	> 10
Calu-3 [7]	0	–
Calu-3 [18]	–	> 10
HepG2 [3]	0	–
HepG2 [14]	–	> 10
U2OS [4]	0	–
U2OS [15]	–	> 10
Vero E6 [5]	0.3	–
Vero E6 [16]	–	> 10

cell viability [%]
Details	Caco-2 [12]	Calu-3 [13]	HepG2 [9]	U2OS [10]	Vero E6 [11]
1 nM	96.4	101	95.3	104	102
10 nM	105	98	84	99.5	99.9
100 nM	100	98.3	94.7	96.6	103
1000 nM	109	102	94.8	101	88.8
10000 nM	93.6	101	82.3	95.5	92.2

CNC(=O)[C@@H](Cc1ccccc1)N(C)C(=O)[C@@H](Cc1ccc2ccccc2c1)N(C)C(=O)/C=C/CC(C)(C)N [tabimorelin]
Details	drug sensitivity score	relative viability EC50 [µM]
Caco-2 [6]	0	–
Caco-2 [17]	–	> 10
Calu-3 [7]	0	–
Calu-3 [18]	–	> 10
HepG2 [3]	0.6	–
HepG2 [14]	–	> 10
U2OS [4]	0	–
U2OS [15]	–	> 10
Vero E6 [5]	0	–
Vero E6 [16]	–	> 10

cell viability [%]
Details	Caco-2 [12]	Calu-3 [13]	HepG2 [9]	U2OS [10]	Vero E6 [11]
1 nM	99.8	96.4	105	99.9	95.8
10 nM	104	100	96.5	101	102
100 nM	103	100	106	96.8	101
1000 nM	95.4	104	87.3	103	102
10000 nM	92.3	88.2	96.5	98.3	99.1
